From US9580430B2, “9H-pyrimido[4,5-B]indoles and related analogs as BET bromodomain inhibitors” (THE REGENTS OF THE UNIVERSITY OF MICHIGAN, priority 2014, dated 2017)

How the values were obtained:
MDA-MB-436 = experiment: Cell growth inhibition, MDA-MB-436 breast cancer cells (WST-8); assay type: cell-based; conditions: Homo sapiens, MDA-MB-436, 96 h; 4 days; read-out: IC50 (nM) MDA-MB-436 Cell Line (WST assay)
Method: All the breast cancer cell lines were obtained from the ATCC. Cell viability was determined using the WST-8 (2-(2-methoxy-4-nitrophenyl)-3-(4-nitrophenyl)-5-(2,4-disulfophenyl)-2H-tetrazolium, monosodium salt) based Cell Counting-8 Kit (Dojindo Molecular Technologies, Inc., Rockville, Md.) according to the manufacture's instruction. […] The absorbance was measured at 450 nm using a SPECTRAmax PLUS plate reader (Molecular Devices, Sunnyvale, Calif.). The IC50 was calculated using the GraphPad Prism 5 software.

recombinant BRD4 BD1 = target: T1, recombinant BRD4 BD1 (Homo sapiens, UniProt O60885); experiment: Competitive fluorescence-polarization (FP) binding assay, BRD4 BD1; conditions: competitive FP assay; protein 10 nM, probe […]; read-out: IC50 (nM) BRD4 BD1; further: probe 1.5 nM
T1 construct: for recombinant BRD4 BD1 and BRD4 BD2 proteins
Method: (§1) Fluorescence Polarization (FP) competitive binding studies were carried out using a FAM labeled fluorescent probe (ZBA248 or BRD-1F) to determine binding affinities of representative Compounds of the Disclosure for recombinant BRD4 BD1 and BRD4 BD2 proteins. For example, equilibrium dissociation constants (Kd) values of ZBA248 to these […] proteins were determined from protein saturation experiments by monitoring the total fluorescence polarization of mixtures composed with the fluorescent probe at a fixed concentration and proteins with increasing concentrations up to full saturation. Serial dilutions of testing protein were mixed with ZBA248 to a final volume of 200 μl in the assay buffer. […] Plates were incubated at room temperature for 30 minutes with gentle shaking to assure equilibrium. […] Kd values of ZBA248 were calculated by fitting the sigmoidal dose-dependent FP increases as a function of protein concentrations using Graphpad Prism 6.0 software (Graphpad Software, San Diego, Calif.).
(§2) The IC50 and Ki values of representative Compounds of the Disclosure were determined in a competitive binding experiment as described above. Mixtures of 10 μl of the tested compounds in assay buffer with 40% Ethylene Glycol and 190 μl of preincubated protein/probe complex solution in the assay buffer (100 mM potassium phosphate, pH 6.5, 0.01% Triton X-100) were added into assay plates which were incubated at room temperature for 30 minutes with gentle shaking. Final concentrations of proteins were 10 and 6 nM in assays for BD1 and BD2 of BRD4, respectively. […] FP values were measured as described above. IC50 values were determined by nonlinear regression fitting of the competition curves.

MOLM-13 = experiment: Cell growth inhibition, MOLM-13 leukemia cells (CellTiter-Glo); assay type: cell-based; conditions: Homo sapiens, MOLM-13, 96 h; 4 days; read-out: IC50 (nM) MOLM-13 Cell Line (CellTiter-Glo assay)
Method: Cell growth inhibitory activity of representative Compounds of the Disclosure was determined using CellTiter-Glo® Luminescent Cell Viability Assay. […] Cell viability was determined using the CellTiter-Glo® Luminescent Cell Viability Assay Kit (Promega, Madison, Wis.) according to the manufacture's instruction. Briefly, a volume of CellTiter-Glo® Reagent equal to the volume of cell culture medium was added to each well, and then the plates were incubated at room temperature for 10-20 minutes. The luminescent signal was measured using a Tecan Infinite M1000 multimode microplate reader (Tecan, Morrisville, N.C.). The half maximal inhibitory concentration (IC50) was calculated using the GraphPad Prism 5 software (GraphPad Software, La Jolla, Calif.).

recombinant BRD4 BD2 = target: T2, recombinant BRD4 BD2 (Homo sapiens, UniProt O60885); experiment: Competitive fluorescence-polarization (FP) binding assay, BRD4 BD2; conditions: competitive FP assay; protein 6 nM, probe […]; read-out: IC50 (nM) BRD4 BD2; further: probe 1.5 nM
T2 construct: for recombinant BRD4 BD1 and BRD4 BD2 proteins
Method: as §1, §2

Row | SMILES | IC50 (MDA-MB-436) [nM] | IC50 (recombinant BRD4 BD1) [nM] | IC50 (MOLM-13) [nM] | IC50 (recombinant BRD4 BD2) [nM]
1 | COc1cc2c(cc1-c1c(C)noc1C)[nH]c1nc(C)nc(Nc3ccc4cc[nH]c4c3)c12 [Cpd. No. 233, 7-(3,5-dimethylisoxazol-4-yl)-N-(1H-indol-6-yl)-6-methoxy-2-methyl-9H-pyrimido[4,5-b]indol-4-amine] | 222 | 69 | 101 | 38
2 | COc1cc2c(cc1-c1c(C)noc1C)[nH]c1nc(C)nc(Nc3ccnn3C(C)(C)C)c12 [Cpd. No. 183, N-(1-(tert-butyl)-1H-pyrazol-5-yl)-7-(3,5-dimethylisoxazol-4-yl)-6-methoxy-2-methyl-9H-pyrimido[4,5-b]indol-4-amine] | 83.7 | 9.6 | 29.7 | 6.1
3 | COc1cc2c(cc1-c1c(C)noc1C)[nH]c1nc(C)nc(Nc3cc(C(C)C)nn3C)c12 [Cpd. No. 65, 7-(3,5-Dimethylisoxazol-4-yl)-N-(3-isopropyl-1-methyl-1H-pyrazol-5-yl)-6-methoxy-2-methyl-9H-pyrimido[4,5-b]indol-4-amine] | 26 | 6.1 | 11.7 | 4.1
4 | COc1cc2c(cc1-c1c(C)noc1C)[nH]c1nc(C)nc(Nc3cccc(N(C)C)c3)c12 [Cpd. No. 230, N1-(7-(3,5-dimethylisoxazol-4-yl)-6-methoxy-2-methyl-9H-pyrimido[4,5-b]indol-4-yl)-N3,N3-dimethylbenzene-1,3-diamine] | 123 | 13 | 71 | 8
5 | COc1cc2c(cc1-c1c(C)noc1C)[nH]c1nc(C)nc(Nc3nn(C)c4ncccc34)c12 [Cpd. No. 10, 7-(3,5-Dimethylisoxazol-4-yl)-6-methoxy-2-methyl-N-(1-methyl-1H-pyrazolo[3,4-b]pyridin-3-yl)-9H-pyrimido[4,5-b]indol-4-amine] | 138 | 21.5 | 45.6 | 43.3
6 | COc1cc2c(cc1-c1c(C)noc1C)[nH]c1nc(C)nc(Nc3c(F)c(C4CC4)nn3C)c12 [Cpd. No. 249, N-(3-cyclopropyl-4-fluoro-1-methyl-1H-pyrazol-5-yl)-7-(3,5-dimethylisoxazol-4-yl)-6-methoxy-2-methyl-9H-pyrimido[4,5-b]indol-4-amine] | 302 | 29 | 159 | 99
7 | COc1cc2c(cc1-c1c(C)noc1C)[nH]c1nc(C)nc(Nc3nn(C)cc3C)c12 [Cpd. No. 77, N-(1,4-dimethyl-1H-pyrazol-3-yl)-7-(3,5-dimethylisoxazol-4-yl)-6-methoxy-2-methyl-9H-pyrimido[4,5-b]indol-4-amine] | 351 | 64.4 | 242 | 168
8 | COc1cc2c(cc1-c1c(C)noc1C)[nH]c1ccnc(Nc3cc(C4CC4)nn3C)c12 [Cpd. No. 255, N-(3-cyclopropyl-1-methyl-1H-pyrazol-5-yl)-7-(3,5-dimethylisoxazol-4-yl)-8-methoxy-5H-pyrido[4,3-b]indol-1-amine] | 26 | 10.5 | 12 | 8.5
9 | COc1cc2c(cc1-c1c(C)noc1C)[nH]c1nc(C)nc(Nc3ccc(OC)c4ccccc34)c12 [Cpd. No. 100, 7-(3,5-dimethylisoxazol-4-yl)-6-methoxy-N-(4-methoxynaphthalen-1-yl)-2-methyl-9H-pyrimido[4,5-b]indol-4-amine] | 235 | 99 | 147 | 89
10 | COc1cc2c(cc1-c1c(C)noc1C)[nH]c1nc(C)nc(Nc3cccc4[nH]ccc34)c12 [Cpd. No. 220, 7-(3,5-dimethylisoxazol-4-yl)-N-(1H-indol-4-yl)-6-methoxy-2-methyl-9H-pyrimido[4,5-b]indol-4-amine] | 72 | 17 | 37 | 9
11 | COc1cc2c(cc1-c1c(C)noc1C)[nH]c1nc(C)nc(Nc3cc(C)nn3C(C)C)c12 [Cpd. No. 9, 7-(3,5-Dimethylisoxazol-4-yl)-N-(1-isopropyl-3-methyl-1H-pyrazol-5-yl)-6-methoxy-2-methyl-9H-pyrimido[4,5-b]indol-4-amine] | 29.6 | 6.1 | 5 | 6.3
12 | COc1cc2c(cc1-c1c(C)noc1C)[nH]c1nc(C)nc(Nc3cc(C)ccc3C)c12 [Cpd. No. 238, 7-(3,5-dimethylisoxazol-4-yl)-N-(2,5-dimethylphenyl)-6-methoxy-2-methyl-9H-pyrimido[4,5-b]indol-4-amine] | 61 | 5 | 39 | 3
13 | COc1cc2c(cc1-c1c(C)noc1C)[nH]c1nc(C)nc(Nc3cccc4ccncc34)c12 [Cpd. No. 223, 7-(3,5-dimethylisoxazol-4-yl)-N-(isoquinolin-8-yl)-6-methoxy-2-methyl-9H-pyrimido[4,5-b]indol-4-amine] | 152 | 47 | 115 | 55
14 | CCn1nc(C)cc1Nc1nc(C)nc2[nH]c3cc(-c4c(C)noc4C)c(OC)cc3c12 [Cpd. No. 116, 7-(3,5-Dimethylisoxazol-4-yl)-N-(1-ethyl-3-methyl-1H-pyrazol-5-yl)-6-methoxy-2-methyl-9H-pyrimido[4,5-b]indol-4-amine] | 26.3 | 14 | 15.4 | 9.6
15 | CCn1nc(C2CC2)c(F)c1Nc1nc(C)nc2[nH]c3cc(-c4c(C)noc4C)c(OC)cc3c12 [Cpd. No. 250, N-(3-cyclopropyl-1-ethyl-4-fluoro-1H-pyrazol-5-yl)-7-(3,5-dimethylisoxazol-4-yl)-6-methoxy-2-methyl-9H-pyrimido[4,5-b]indol-4-amine] | 67 | 12 | 21 | 14
16 | COc1cc2c(cc1-c1c(C)noc1C)[nH]c1nc(C)nc(Nc3nn(C)c4ccccc34)c12 [Cpd. No. 12, 7-(3,5-Dimethylisoxazol-4-yl)-6-methoxy-2-methyl-N-(1-methyl-1H-indazol-3-yl)-9H-pyrimido[4,5-b]indol-4-amine] | 59.6 |  | 15.2 | 28.2
17 | COc1cc2c(cc1-c1c(C)noc1C)[nH]c1nc(C)nc(Nc3cc(C(F)(F)F)nn3C(C)(C)C)c12 [Cpd. No. 117, N-(1-(tert-Butyl)-3-(trifluoromethyl)-1H-pyrazol-5-yl)-7-(3,5-dimethylisoxazol-4-yl)-6-methoxy-2-methyl-9H-pyrimido[4,5-b]indol-4-amine] | 177 | 62.4 | 90.9 | 
18 | COc1cc2c(cc1-c1c(C)noc1C)[nH]c1nc(C)nc(Nc3cc(C)nn3-c3ccccc3)c12 [Cpd. No. 1, 7-(3,5-Dimethylisoxazol-4-yl)-6-methoxy-2-methyl-N-(3-methyl-1-phenyl-1H-pyrazol-5-yl)-9H-pyrimido[4,5-b]indol-4-amine] | 148 |  | 29.8 | 21.8
19 | COc1cc2c(cc1-c1c(C)noc1C)[nH]c1nc(C)nc(Nc3c[nH]nc3-c3ccccc3)c12 [Cpd. No. 2, 7-(3,5-Dimethylisoxazol-4-yl)-6-methoxy-2-methyl-N-(3-phenyl-1H-pyrazol-4-yl)-9H-pyrimido[4,5-b]indol-4-amine] | 246 |  | 68 | 41.9
20 | COc1cc2c(cc1-c1c(C)noc1C)[nH]c1nc(C)nc(Nc3nn(C)c4ccc(F)cc34)c12 [Cpd. No. 127, 7-(3,5-Dimethylisoxazol-4-yl)-N-(5-fluoro-1-methyl-1H-indazol-3-yl)-6-methoxy-2-methyl-9H-pyrimido[4,5-b]indol-4-amine] | 508 |  | 178 | 
